System: Anguilla japonica leptocephali
Experiment: Induction of Anguilla japonica metamorphosis by T4 treatment in 23° C. breeding water
Format: in vivo
Design: key: L: During life, no characteristics of metamorphosis seen.; Stage 1: Starting phase of metamorphosis. The rostral end is rounded, and intestinal degeneration starts.; Stage 2: Peak phase of metamorphosis. Intestinal degeneration becomes pronounced.; Stage 3: Late phase of metamorphosis.; Stage 4: Pre-glass eel stage. Almost the eel form, but the body height still remains
Text: Stage 1: Starting phase of metamorphosis. The rostral end is rounded, and intestinal degeneration starts.
Stage 2: Peak phase of metamorphosis. Intestinal degeneration becomes pronounced. In the second half, the anus reaches to near the last vertical blood vessel (VBV last).
Stage 3: Late phase of metamorphosis. The preanal length (PAL) becomes equal to or shorter than the last vertical blood vessel length (VBV last Length) (PAL VBV last Length). The body height is apparently low.
Stage 4: Pre-glass eel stage. Almost the eel form, but the body height still remains. Melanophores on the body surface or endogenous melanophores are not yet seen.
Elver stage: Juvenile stage. Food intake can be identified.
A thyroid hormone (e.g., thyroxine (T4)) is adjusted to 50 to 100 mM in a 1- to 2-mL volume messflask. As a solvent, known solvents (water, alcohol) can be used. Ethanol is preferably used as the solvent.
For example, using ethanol as a solvent, T4 adjusted to 50 mM is diluted 500-fold, 5,000-fold, and 50,000-fold, respectively, and adjusted to […], 1 μM, and 100 nM. A feed can be prepared in this manner.
Artificial seawater is added to a breeding vessel, and 1/1000 of the […] T4 is added to prepare […] T4 breeding water.
Half of the breeding water is replaced every two days with breeding water of the same concentration. In the case where the concentration is changed, for example, in the case of changing from 10 nM to 2 nM, 80% to the breeding water is removed, and unadjusted artificial seawater is newly added to make 1 L.
Leptocephali visually considered to have reached a total length of 40 mm (or may be 30 mm to 50 mm, may be 35 mm to 45 mm, or may also be 35 mm or more, 40 mm or more, or 45 mm or more) are selected, anesthetized with 2-phenoxyethanol, and then photographed, and the total length of each larva is measured using an image analyzing device.
The larvae are placed in 10 nM T4 breeding water and then placed in an incubator set at 23° C., and breeding is started. In first one week, observation is performed every two days, and half of the 10 nM T4 breeding water is replaced each time. The average amount of thyroid hormone in the breeding water in stage 1 is 1 nM to 100 nM, for example, and may also be 3 nM to 30 nM, or 5 nM to 20 nM.
For larvae visually judged to have reached the second half of stage 2, the concentration of the breeding water is changed. The breeding water is diluted 5-fold or 10-fold and adjusted to 2 nM or 1 nM T4, and breeding is continued. The average amount of thyroid hormone in the breeding water in stage 2 may be, as compared with the breeding water of stage 1, diluted 2-fold to 20-fold, diluted 3 to 15-fold, or diluted 5 to 10-fold as described above. The average amount of thyroid hormone in the breeding water in stage 2 is 0.1 nM to 20 nM, for example, and may also be 0.5 nM to 10 nM, 1 nM to 5 nM, or 1 nM to 2 nM.
For larvae visually judged to have reached stage 3, the breeding water is quickly changed 0.2 nM T4 breeding water, which is a 5-fold dilution of 1 nM T4 breeding water, and further changed to 0.1 nM T4 breeding water on the following day. […] Also, in larvae whose anus position has not reached the last vertical hemal spine, when they are judged to be on the brink of stage 3, the concentration is changed as above. The average amount of thyroid hormone in the breeding water in stage 3 may be, as compared with the breeding water of stage 2, diluted 2-fold to 50-fold, diluted 3 to 15-fold, diluted 4 to 6-fold, or diluted 5-fold as described above. The average amount of thyroid hormone in the breeding water in stage 3 is 0.01 nM to 2 nM, for example, and may also be 0.05 nM to 1 nM, 0.1 nM to 0.5 nM, or 0.1 nM to 0.2 nM. […] That is, the concentration may be changed such that the thyroid hormone becomes undetectable in the breeding water in the course of stage 3.
In stage 3, breeding is continuously performed in the 0.1 nM T4 breeding water. […]

In the case of `N[C@@H](Cc1cc(I)c(Oc2cc(I)c(O)c(I)c2)c(I)c1)C(=O)O` [T4, thyroxine], the metamorphosis stage (individual Exp 5-5, 174 days old, total length 36.1 mm at start, c3 onward = treatment days 1,3,5,7,8,9,10,11,12,13,14,15,16,17, T4 (nM) 10,10,10,10,10,10,10,2,0.2,0.1,0.1,0.1,0.1,0.1, treatment day 16, T4 0.1 nM) is reported as 3, the metamorphosis stage (individual Exp 5-5, 174 days old, total length 36.1 mm at start, c3 onward = treatment days 1,3,5,7,8,9,10,11,12,13,14,15,16,17, T4 (nM) 10,10,10,10,10,10,10,2,0.2,0.1,0.1,0.1,0.1,0.1, treatment day 17, T4 0.1 nM) is reported as 4 and the metamorphosis stage (individual Exp 6-2, 129 days old, total length 38.1 mm at start, c3 onward = treatment days 1,3,5,7,9,10,11,12,13,14,15,16,17,18, T4 (nM) 10,10,10,10,10,2,0.2,0.1,0.1,0.1,0.1,0.1,0.1,0.1) is reported as 3. For the same molecule, the metamorphosis stage (individual Exp. 5-1, 175 days old, total length 38.5 mm at start, c3 onward = treatment days 1,3,5,7,8,9,10,11,12,13,14,15,16,17,18, T4 (nM) 10,10,10,10,2,1,0.2,0.1,0.1,0.1,0.1,0.1, treatment day 1, T4 10 nM) was “L”, the metamorphosis stage (individual Exp. 5-1, 175 days old, total length 38.5 mm at start, c3 onward = treatment days 1,3,5,7,8,9,10,11,12,13,14,15,16,17,18, T4 (nM) 10,10,10,10,2,1,0.2,0.1,0.1,0.1,0.1,0.1, treatment day 3, T4 10 nM) was “L” and the metamorphosis stage (individual Exp. 5-1, 175 days old, total length 38.5 mm at start, c3 onward = treatment days 1,3,5,7,8,9,10,11,12,13,14,15,16,17,18, T4 (nM) 10,10,10,10,2,1,0.2,0.1,0.1,0.1,0.1,0.1, treatment day 5, T4 10 nM) was 1. It also gave a metamorphosis stage (individual Exp. 5-1, 175 days old, total length 38.5 mm at start, c3 onward = treatment days 1,3,5,7,8,9,10,11,12,13,14,15,16,17,18, T4 (nM) 10,10,10,10,2,1,0.2,0.1,0.1,0.1,0.1,0.1, treatment day 7, T4 10 nM) of 2, a metamorphosis stage (individual Exp. 5-1, 175 days old, total length 38.5 mm at start, c3 onward = treatment days 1,3,5,7,8,9,10,11,12,13,14,15,16,17,18, T4 (nM) 10,10,10,10,2,1,0.2,0.1,0.1,0.1,0.1,0.1, treatment day 8, T4 2 nM) of 2 and a metamorphosis stage (individual Exp. 5-1, 175 days old, total length 38.5 mm at start, c3 onward = treatment days 1,3,5,7,8,9,10,11,12,13,14,15,16,17,18, T4 (nM) 10,10,10,10,2,1,0.2,0.1,0.1,0.1,0.1,0.1, treatment day 9, T4 1 nM) of 2. The metamorphosis stage (individual Exp. 5-1, 175 days old, total length 38.5 mm at start, c3 onward = treatment days 1,3,5,7,8,9,10,11,12,13,14,15,16,17,18, T4 (nM) 10,10,10,10,2,1,0.2,0.1,0.1,0.1,0.1,0.1, treatment day 10, T4 0.2 nM) was 3, the metamorphosis stage (individual Exp. 5-1, 175 days old, total length 38.5 mm at start, c3 onward = treatment days 1,3,5,7,8,9,10,11,12,13,14,15,16,17,18, T4 (nM) 10,10,10,10,2,1,0.2,0.1,0.1,0.1,0.1,0.1, treatment day 11, T4 0.1 nM) was 3 and the metamorphosis stage (individual Exp. 5-1, 175 days old, total length 38.5 mm at start, c3 onward = treatment days 1,3,5,7,8,9,10,11,12,13,14,15,16,17,18, T4 (nM) 10,10,10,10,2,1,0.2,0.1,0.1,0.1,0.1,0.1, treatment day 12, T4 0.1 nM) was 3. The metamorphosis stage (individual Exp. 5-1, 175 days old, total length 38.5 mm at start, c3 onward = treatment days 1,3,5,7,8,9,10,11,12,13,14,15,16,17,18, T4 (nM) 10,10,10,10,2,1,0.2,0.1,0.1,0.1,0.1,0.1, treatment day 13, T4 0.1 nM) was 3, the metamorphosis stage (individual Exp. 5-1, 175 days old, total length 38.5 mm at start, c3 onward = treatment days 1,3,5,7,8,9,10,11,12,13,14,15,16,17,18, T4 (nM) 10,10,10,10,2,1,0.2,0.1,0.1,0.1,0.1,0.1, treatment day 14, T4 0.1 nM) was 3 and the metamorphosis stage (individual Exp. 5-1, 175 days old, total length 38.5 mm at start, c3 onward = treatment days 1,3,5,7,8,9,10,11,12,13,14,15,16,17,18, T4 (nM) 10,10,10,10,2,1,0.2,0.1,0.1,0.1,0.1,0.1, treatment day 15, T4 0.1 nM) was 4. For the same molecule, the metamorphosis stage (individual Exp. 5-2, 175 days old, total length 41.3 mm at start, c3 onward = treatment days 1,3,5,7,8,9,10,11,12,13,14,15,16,17,18, T4 (nM) 10,10,10,10,2,1,0.2,0.1,0.1,0.1,0.1,0.1, treatment day 1, T4 10 nM) was “L”, the metamorphosis stage (individual Exp. 5-2, 175 days old, total length 41.3 mm at start, c3 onward = treatment days 1,3,5,7,8,9,10,11,12,13,14,15,16,17,18, T4 (nM) 10,10,10,10,2,1,0.2,0.1,0.1,0.1,0.1,0.1, treatment day 3, T4 10 nM) was “L” and the metamorphosis stage (individual Exp. 5-2, 175 days old, total length 41.3 mm at start, c3 onward = treatment days 1,3,5,7,8,9,10,11,12,13,14,15,16,17,18, T4 (nM) 10,10,10,10,2,1,0.2,0.1,0.1,0.1,0.1,0.1, treatment day 5, T4 10 nM) was 2. For the same molecule, the metamorphosis stage (individual Exp. 5-2, 175 days old, total length 41.3 mm at start, c3 onward = treatment days 1,3,5,7,8,9,10,11,12,13,14,15,16,17,18, T4 (nM) 10,10,10,10,2,1,0.2,0.1,0.1,0.1,0.1,0.1, treatment day 7, T4 10 nM) was 2, the metamorphosis stage (individual Exp. 5-2, 175 days old, total length 41.3 mm at start, c3 onward = treatment days 1,3,5,7,8,9,10,11,12,13,14,15,16,17,18, T4 (nM) 10,10,10,10,2,1,0.2,0.1,0.1,0.1,0.1,0.1, treatment day 8, T4 2 nM) was 2 and the metamorphosis stage (individual Exp. 5-2, 175 days old, total length 41.3 mm at start, c3 onward = treatment days 1,3,5,7,8,9,10,11,12,13,14,15,16,17,18, T4 (nM) 10,10,10,10,2,1,0.2,0.1,0.1,0.1,0.1,0.1, treatment day 9, T4 1 nM) was 2. It also gave a metamorphosis stage (individual Exp. 5-2, 175 days old, total length 41.3 mm at start, c3 onward = treatment days 1,3,5,7,8,9,10,11,12,13,14,15,16,17,18, T4 (nM) 10,10,10,10,2,1,0.2,0.1,0.1,0.1,0.1,0.1, treatment day 10, T4 0.2 nM) of 3, a metamorphosis stage (individual Exp. 5-2, 175 days old, total length 41.3 mm at start, c3 onward = treatment days 1,3,5,7,8,9,10,11,12,13,14,15,16,17,18, T4 (nM) 10,10,10,10,2,1,0.2,0.1,0.1,0.1,0.1,0.1, treatment day 11, T4 0.1 nM) of 3 and a metamorphosis stage (individual Exp. 5-2, 175 days old, total length 41.3 mm at start, c3 onward = treatment days 1,3,5,7,8,9,10,11,12,13,14,15,16,17,18, T4 (nM) 10,10,10,10,2,1,0.2,0.1,0.1,0.1,0.1,0.1, treatment day 12, T4 0.1 nM) of 3. For the same molecule, the metamorphosis stage (individual Exp. 5-2, 175 days old, total length 41.3 mm at start, c3 onward = treatment days 1,3,5,7,8,9,10,11,12,13,14,15,16,17,18, T4 (nM) 10,10,10,10,2,1,0.2,0.1,0.1,0.1,0.1,0.1, treatment day 13, T4 0.1 nM) was 3.
